Test results: paper PMC7415810, “A novel nucleolin-binding peptide for Cancer Theranostics” (Theranostics, 2020)

Tests used:
MDA-MB-231-luc xenograft = test: Tumorigenesis experiment, MDA-MB-231-luc breast cancer xenograft
Experimental: All animal experiments were performed in accordance with IACUC guidelines (GIST-2019-040). For tumorigenesis experiments, anesthetized 6-week-old female NOD-scid Il2rg^-^/^- mice (NPG^TM, VITALSTAR) were inoculated in the mammary fat pad with 1 × 10^6 MDA-MB-231-luc cells in a 100 μl volume (n = 5 for each group). After tumor cell inoculation, when the tumor volume reached approximately 100 mm^3, the mice were randomly divided into the following five groups: (i) control, (ii) low-dose paclitaxel (2 mg/kg), (iii) high-dose paclitaxel (10 mg/kg), (iv) AGM-330 (16.68 mg/kg, molar equivalent to 2 mg/kg of PTX), and (v) AGM-330-PTX (19.05 mg/kg, molar equivalent to 2 mg/kg of PTX). The tumor size was measured twice a week, and the tumor volume was calculated with the following formula: volume (mm^3) = [length (mm)] × [width (mm)]^2 × 0.5. For the bioluminescent imaging experiment, D-luciferin (150 mg/kg; PerkinElmer) was intraperitoneally injected into each mouse, and an IVIS 100 imaging system (Xenogen, Corporation, Alameda, CA) was used for bioluminescent monitoring. Mice were anesthetized with vaporized isofurane (BK Pharm, Ilsan, Korea) and placed in an imaging chamber. After 10 min, each animal was imaged with an exposure time of 1 min. All bioluminescent image data were obtained using Living Image software (version 4.5.2, PerkinElmer). Photons detected from tumors were converted to average radiance values (photon/sec/cm^2/sr), which are quantitative data obtained from a region of […] (ROI) and include the photons emitted by bioluminescent cells from an assigned rectangular area over the whole body of each mouse.
A, Cell proliferation inhibition by AGM-330-PTX treatment was determined for 48 h by the WST assay in multiple breast and colorectal cancer cells and in normal cells. B, Schematic representation of the experimental protocol as described in the materials and methods section. Anesthetized 6‑week-old […] NPG mice were inoculated with a 1:1 mix of Matrigel and 1 × 10^6 MDA-MB-231-luc cells into the mammary fat pad. When the volume of primary tumors reached approximately 100 mm^3, tumor-bearing mice were treated with vehicle (PBS), PTX (2 or 10 mg/kg), AGM-330 (16.68 mg/kg, molar equivalent to 2 mg/kg of PTX), or AGM-330-PTX (19.05 mg/kg, molar equivalent to 2 mg/kg of PTX; n = 5/group). C-E, The therapeutic effect of AGM-330-PTX was evaluated in breast cancer xenograft models. C, Primary tumor volume was measured twice a week until the day of sacrifice. The primary tumor volume was calculated by the formula volume (mm^3) = (length (mm)) × (width (mm))^2 × 0.5. D, On the day of sacrifice, all primary tumors were isolated, and (E) the primary tumor weights were evaluated. F-I, Immunohistochemistry (IHC) sections of representative tumors with Ki-67 (F,H) and TUNEL (G,I) staining. Nuclei were stained with DAPI (blue). Scale bar, 50 µm. Bar graphs represent the mean ± SD, and statistical analyses were performed by one-way ANOVA with Dunnett's multiple comparison. *, **, and *** indicate P < 0.05, P < 0.01, and P < 0.001, respectively.
Following in vitro proliferation analysis on cancer lines, we investigated whether AGM-330-PTX could be a potential therapeutic agent in vivo. We inoculated MDA-MB-231-luc cells into the mammary fat pad of NPG mice. After the […] tumors grew to 100 mm^3, comparative efficacy studies were performed by dividing the animals into five groups (n = 5/group) treated with vehicle (PBS), PTX (2 or 10 mg/kg, respectively), AGM-330 (16.68 mg/kg, molar equivalent to 2 mg/kg of PTX), or AGM-330-PTX (19.05 mg/kg, molar equivalent to 2 mg/kg of PTX) twice a week by tail vein injection (Figure 5B). Tumor growth was monitored by measuring volumes twice a week with a caliber rule over the course of 3 weeks.
Figure S11. A-E, NPG TM mice bearing MDA-MB-231-luc tumors were treated twice a week for 21 days with […]

[1] = Release of PTX in vitro (linker hydrolysis) in PBS; assay type: physicochemical; details: 100 μM stock diluted 10-fold in PBS, 37 °C, HPLC, triplicate
Experimental: (§1) Stock solutions of AGM-330-PTX (100 μM) were diluted 10-fold with pre-warmed 100% human serum (Sigma-Aldrich) or PBS and incubated at 37 °C for 0, 1, 2, 6 and 12 h. […] Each experiment was performed in triplicate.
(§2) Figure S10. A, B, Changes in the HPLC chromatogram of AGM-330-PTX after incubation with human serum (A) or PBS (B). C, D, MS spectra of AGM-330-PTX (C) and AGM-330 (D). E, Time-dependent fluorescence imaging of AGM-330-PTX-Rh in MDA-MB-231 cells. Cells were incubated with 5 μmol/l AGM-330-PTX-Rh. […]
(§3) bit secondary antibody coupled to Alexa Fluor 488. Cells were then fixed with 4 % paraformaldehyde, and the nuclei were stained with DAPI. MERGE represents a merged image of AGM-330, PTX, and nuclear staining by […]

[2] = Release of PTX in vitro (linker hydrolysis) in human serum; assay type: in vitro ADME; details: 100 μM stock diluted 10-fold in 100% human serum, 37 °C, HPLC, triplicate
Experimental: as §1, §2, §3

[3] = AGM-330-PTX treatment, xenograft

CSCC[C@H](NC(=O)[C@H](C)NC(=O)CNC(=O)[C@H](Cc1c[nH]cn1)NC(=O)[C@@H](N)CCCNC(=N)N)C(=O)N[C@H](C(=O)N[C@@H](Cc1ccc(O)cc1)C(=O)N[C@@H](CC(C)C)C(=O)N[C@@H](CCCCN)C(=O)NCCOCCOCCOCCOCCOCCOCCOCCOCCOCCOCCOCCOCCC(=O)NCCCC[C@H](NC(=O)CCOCCOCCOCCOCCOCCOCCOCCOCCOCCOCCOCCOCCNC(=O)[C@H](CCCCN)NC(=O)[C@H](CC(C)C)NC(=O)[C@H](Cc1ccc(O)cc1)NC(=O)[C@@H](NC(=O)[C@H](CCSC)NC(=O)[C@H](C)NC(=O)CNC(=O)[C@H](Cc1c[nH]cn1)NC(=O)[C@@H](N)CCCNC(=N)N)C(C)C)C(=O)NCCCC[C@H](NC(=O)[C@H](CCCCNC(=O)CCOCCOCCOCCOCCOCCOCCOCCOCCOCCOCCOCCOCCNC(=O)[C@H](CCCCN)NC(=O)[C@H](CC(C)C)NC(=O)[C@H](Cc1ccc(O)cc1)NC(=O)[C@@H](NC(=O)[C@H](CCSC)NC(=O)[C@H](C)NC(=O)CNC(=O)[C@H](Cc1c[nH]cn1)NC(=O)[C@@H](N)CCCNC(=N)N)C(C)C)NC(=O)CCOCCOCCOCCOCCOCCOCCOCCOCCOCCOCCOCCOCCNC(=O)[C@H](CCCCN)NC(=O)[C@H](CC(C)C)NC(=O)[C@H](Cc1ccc(O)cc1)NC(=O)[C@@H](NC(=O)[C@H](CCSC)NC(=O)[C@H](C)NC(=O)CNC(=O)[C@H](Cc1c[nH]cn1)NC(=O)[C@@H](N)CCCNC(=N)N)C(C)C)C(=O)N[C@@H](CSC1CC(=O)N(CCC(=O)O[C@@H](C(=O)O[C@H]2C[C@@]3(O)[C@@H](OC(=O)c4ccccc4)[C@@H]4[C@]5(OC(C)=O)CO[C@@H]5C[C@H](O)[C@@]4(C)C(=O)[C@H](OC(C)=O)C(=C2C)C3(C)C)[C@@H](NC(=O)c2ccccc2)c2ccccc2)C1=O)C(=O)O)C(C)C (stereo partly shown) [AGM-330-PTX]
average tumor volume (MDA-MB-231-luc xenograft; 19.05 mg/kg (molar equivalent to 2 mg/kg of PTX), tail vein twice a week, day 21, n = 5): 807 ± 90 mm^3
final average tumor weight (MDA-MB-231-luc xenograft; 19.05 mg/kg (molar equivalent to 2 mg/kg of PTX), tail vein twice a week, n = 5): 1.3 ± 0.1 g
blood chemistry analysis (ALB, GOT, GPT, TP-PS, UA in serum) (MDA-MB-231-luc xenograft; 19.05 mg/kg twice a week for 21 days, n = 5): no adverse signs of toxicity
mouse body weight versus vehicle (PBS) (MDA-MB-231-luc xenograft; 19.05 mg/kg twice a week, 3 weeks, n = 5): not affected
histology of excised tumors (H&E, Ki-67, TUNEL) (MDA-MB-231-luc xenograft; 19.05 mg/kg twice a week, excised tumors): a reduction in the number of cancerous cells and an increase in apoptotic cell nuclei
decrease of average tumor volume with respect to the same dose PTX (MDA-MB-231-luc xenograft; 19.05 mg/kg versus PTX 2 mg/kg, n = 5): approximately 52%
decrease in tumor volume compared with the PBS-treated group (MDA-MB-231-luc xenograft; [3]): 63%
decrease in tumor weight compared with the PBS-treated group (MDA-MB-231-luc xenograft; [3]): 43%
hydrolysis of the propionic acid linker (release of PTX) in PBS [1]: fully hydrolyzed in PBS after 12 h
hydrolysis of the propionic acid linker (release of PTX) in serum [2]: almost completely hydrolyzed after 2 h
